Test results as given in patent US20210007351A1 (priority 2018, published 2021).

Tested on: Phytophthora infestans Genotype 13_A2
Type: cell-based
Details: 0.5%, 1% and 2% (all concentrations) in CMA with 0.5% DMSO; 7 days and 14 days post inoculation; 23 °C

Row | SMILES | average mycelial extension into amended CMA agar (growth)
1 | CC1(C)C2CCC1(C)C(O)C2O (racemic) [(+/−)-exo,exo-2,3-Camphanediol] | heavily reduced or absent altogether
2 | C=CCc1ccc(O)c(OC)c1 [Eugenol, eugenol] | heavily reduced or absent altogether
